{
  "source": "patent US12357680B2",
  "about": "“Inhibition of histone methyl transferases to treat cancer” (Albert-Ludwigs-Universitat Freiburg, priority 2018, dated 2025)",
  "key": {"KMT9 [1]": {"target": "T1, KMT9 (Homo sapiens (Human), UniProt Q9Y5N5)", "T1 sequence (Q9Y5N5 whole entry)": "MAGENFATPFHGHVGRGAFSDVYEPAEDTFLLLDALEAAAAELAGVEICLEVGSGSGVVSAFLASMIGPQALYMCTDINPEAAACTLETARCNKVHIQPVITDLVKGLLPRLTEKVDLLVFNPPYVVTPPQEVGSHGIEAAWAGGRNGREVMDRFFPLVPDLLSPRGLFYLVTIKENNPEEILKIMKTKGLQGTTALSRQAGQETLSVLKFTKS", "T1 sequence (Q9UI30 whole entry partner)": "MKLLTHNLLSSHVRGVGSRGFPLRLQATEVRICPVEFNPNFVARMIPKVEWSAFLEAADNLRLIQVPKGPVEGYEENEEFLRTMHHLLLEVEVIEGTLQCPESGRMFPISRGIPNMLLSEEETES", "assay": "Microscale thermophoresis (MST) KMT9-binding", "settings": "His-tag labelled KMT9 20 nM; read-out: Binding affinity in MST", "protocol": "To determine the binding affinity of the compound to KMT9, microscale thermophoresis (MST) analysis was performed with a NanoTemper Monolith NT.115 instrument (NanoTemper Technologies GmbH). KMT9 was labelled with a RED-Tris-NTA labelling kit (NanoTemper Technologies GmbH) based on the manufacturer's instructions. Buffer including 25 mM HEPES (pH 7.5), 100 mM NaCl, 1 mM DTT and 0.05% Tween was used for the reaction buffer. Varying concentrations of the compound were titrated against His-tag labelled KMT9 proteins (20 nM). Samples were loaded into standard Capillaries (NanoTemper Technologies GmbH) and MST measurements were performed using 40% MST power and 100% LED power. For each set of binding experiments, MST measurement was carried out with Binding Affinity module in MO. Control program under Nano-RED Excitation. Datasets were processed with the MO. Affinity Analysis software (NanoTemper Technologies GmbH)."}, "KMT9 [2]": {"target": "T1, KMT9", "assay": "Methylation assay to test KMT9-inhibition ([3H]SAM, filter binding, scintillation)", "type": "biochemical", "settings": "ETF1 or histone H4 substrate", "protocol": "Methylation assays were performed to test inhibition of the KMT9 methyltransferase activity by compound 72b. To test the compound, 1 μL of the compound, dissolved in DMSO at different concentrations, was added to a 0.5 ml tube (Brand Gmbh&Co KG). Afterwards, 4 μL of assay buffer (50 mM BTP, 1 mM MgCl2, 1 mM DTT, 0.01% TX-100, pH 8.5) were added together with 10 μL of 2× solution of KMT9 diluted in assay buffer (final concentration 0.025-0.6 μM). The solutions were mixed and incubated for 20 min at room temperature, shaking at 300 rpm. Afterwards, 5 μL of 4× Protein-SAM mix was added (final concentrations: 5 μM ETF1 or histone H4, SAM: 1-2.5 μM (including 30% of radioactively labelled [3H]SAM)) to a final assay volume of 20 μL. The reaction mixtures were mixed and incubated in an Eppendorf thermomixer comfort for 2 h at 30° C., shaking at 300 rpm. The reaction was quenched using 5 μL of 50% trichloroacetic acid (TCA) in water, mixed and incubated for 5 min at room temperature without shaking. […] The scintillation signal was measured for 3×1 min using Tri-Carb 2910 TR (PerkinElmer) scintillation counter in [^3H] […]"}, "KMT9 [3]": {"target": "T1, KMT9", "assay": "Thermal shift assay of KMT9 upon inhibitor binding", "settings": "thermal shift at 500 μM", "protocol": "For inhibitor testing, 1 μL of the compound, dissolved in DMSO at different concentrations, were added to a 96 well hard-shell PCR plate (Bio-Rad). Afterwards 4 μL of assay buffer (50 mM BTP, 1 mM MgCl2, 1 mM DTT, pH 8.5) were added, followed by 10 μL of 2×KMT9 (final concentration 2 μM) in assay buffer. After addition of 5 μL 4×SYPRO-Orange (Sigma) (final concentration 5×), the plate was spun for 1 min at 700 rpm, then shaken at 600 rpm for 15 minutes. After another […] spinning at 700 rpm for 1 min, measurement was performed using a CFX96 Touch Real-Time PCR Detection System (Bio-Rad). The plate was equilibrated at 20° C. for 4 minutes before heating gradually by 1° C. every 15 seconds until 95° C. After every step, the fluorescence was measured in FRET mode. The thermal shift at 500 μM is detected in K (Kelvin). For Example 9o, the thermal shift at 250 μM is detected in K (Kelvin). The obtained thermal shift obtained by adding the tested compound is shown in the table below as follows: shift ≤5 K is denoted with a “+”, shift >5 and ≤15 K is denoted with “++”, and shift >15 K is denoted with “+++”."}, "[4]": {"system": "plurality of methyltransferases including DOT1L", "assay": "Specificity across a plurality of methyltransferases", "type": "biochemical", "settings": "10-dose IC50 mode starting at 10 μM, 1 μM SAM", "protocol": "(§1) Compound 72b was further tested against a plurality of methyltransferases as described in the following. […] Reactions were carried out at 1 μM SAM. Curve fits were performed where the enzyme activities at the highest concentration of compounds were less than 65%. […] Compound 72b is referred to as KMI9542321 in the table below."}, "KMT9 [5]": {"target": "T1, KMT9", "assay": "Methyltransferase panel, 10-dose IC50 mode", "type": "biochemical", "settings": "Substrate: Histone H4; 1 μM SAM; read-out: Compound IC50* (M) KMI9542321", "protocol": "as §1"}, "GLP": {"target": "GLP (Homo sapiens (Human), UniProt Q9H9B1)", "assay": "Methyltransferase panel, 10-dose IC50 mode", "type": "biochemical", "settings": "Substrate: Histone H3 (1-21); 1 μM SAM; read-out: Control IC50*", "protocol": "as §1"}, "DNMT3b": {"target": "DNMT3b (Homo sapiens (Human), UniProt Q9UBC3)", "assay": "Methyltransferase panel, 10-dose IC50 mode", "type": "biochemical", "settings": "Substrate: Lambda DNA; 1 μM SAM; read-out: Control IC50*", "protocol": "as §1"}, "MLL1 Complex": {"target": "MLL1 Complex (Homo sapiens (Human), UniProt Q03164)", "assay": "Methyltransferase panel, 10-dose IC50 mode", "type": "biochemical", "settings": "Substrate: Nucleosomes; 1 μM SAM; read-out: Control IC50*", "protocol": "as §1"}, "DNMT3b/3L": {"target": "DNMT3b/3L (Homo sapiens (Human), UniProt Q9UBC3)", "assay": "Methyltransferase panel, 10-dose IC50 mode", "type": "biochemical", "settings": "Substrate: Lambda DNA; 1 μM SAM; read-out: Control IC50*", "protocol": "as §1"}, "SMYD3": {"target": "SMYD3 (Homo sapiens (Human), UniProt Q9H7B4)", "assay": "Methyltransferase panel, 10-dose IC50 mode", "type": "biochemical", "settings": "Substrate: MEKK2; 1 μM SAM; read-out: Control IC50*", "protocol": "as §1"}, "[6]": {"assay": "Methyltransferase panel, 10-dose IC50 mode", "type": "biochemical", "settings": "Substrate: Core Histone; 1 μM SAM; read-out: Control IC50*", "protocol": "as §1"}, "NRMT1": {"target": "NRMT1 (Homo sapiens (Human), UniProt Q9BV86)", "assay": "Methyltransferase panel, 10-dose IC50 mode", "type": "biochemical", "settings": "Substrate: RCC1; 1 μM SAM; read-out: Control IC50*", "protocol": "as §1"}, "SET7/9": {"target": "SET7/9 (Homo sapiens (Human), UniProt Q8WTS6)", "sequence (Q8WTS6 whole entry)": "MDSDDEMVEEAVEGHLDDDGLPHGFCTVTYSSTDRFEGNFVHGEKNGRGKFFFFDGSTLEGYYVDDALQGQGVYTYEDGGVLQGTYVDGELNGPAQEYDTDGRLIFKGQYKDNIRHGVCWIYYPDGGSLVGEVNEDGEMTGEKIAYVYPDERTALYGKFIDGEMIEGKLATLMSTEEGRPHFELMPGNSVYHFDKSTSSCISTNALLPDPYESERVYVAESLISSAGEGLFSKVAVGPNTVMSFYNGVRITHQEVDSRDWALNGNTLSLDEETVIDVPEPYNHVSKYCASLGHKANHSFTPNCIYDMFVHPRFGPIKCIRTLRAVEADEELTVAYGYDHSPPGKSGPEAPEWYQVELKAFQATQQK", "assay": "Methyltransferase panel, 10-dose IC50 mode", "type": "biochemical", "settings": "Substrate: Core Histone; 1 μM SAM; read-out: Control IC50*", "protocol": "as §1"}, "SET1b Complex": {"target": "SET1b Complex (Homo sapiens (Human), UniProt Q9UPS6)", "assay": "Methyltransferase panel, 10-dose IC50 mode", "type": "biochemical", "settings": "Substrate: Core Histone; 1 μM SAM; read-out: Control IC50*", "protocol": "as §1"}, "PRMT3": {"target": "PRMT3 (Homo sapiens (Human), UniProt O60678)", "assay": "Methyltransferase panel, 10-dose IC50 mode", "type": "biochemical", "settings": "Substrate: Histone H4; 1 μM SAM; read-out: Control IC50*", "protocol": "as §1"}, "PRMT6": {"target": "PRMT6 (Homo sapiens (Human), UniProt Q96LA8)", "sequence (Q96LA8 whole entry, species assumed)": "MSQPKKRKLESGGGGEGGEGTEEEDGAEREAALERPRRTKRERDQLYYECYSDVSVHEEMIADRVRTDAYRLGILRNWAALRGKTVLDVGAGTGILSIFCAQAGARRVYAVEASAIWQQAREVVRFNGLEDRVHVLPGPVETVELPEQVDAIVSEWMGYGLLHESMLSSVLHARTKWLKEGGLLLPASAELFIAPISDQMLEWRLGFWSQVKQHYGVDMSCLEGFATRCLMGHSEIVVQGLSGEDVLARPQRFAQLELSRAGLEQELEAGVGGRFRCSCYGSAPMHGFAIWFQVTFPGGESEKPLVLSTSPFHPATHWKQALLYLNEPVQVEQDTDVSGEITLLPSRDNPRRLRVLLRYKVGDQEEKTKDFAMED", "assay": "Methyltransferase panel, 10-dose IC50 mode", "type": "biochemical", "protocol": "as §1"}, "SETD2": {"target": "SETD2 (Homo sapiens (Human), UniProt Q9BYW2)", "sequence (Q9BYW2 whole entry)": "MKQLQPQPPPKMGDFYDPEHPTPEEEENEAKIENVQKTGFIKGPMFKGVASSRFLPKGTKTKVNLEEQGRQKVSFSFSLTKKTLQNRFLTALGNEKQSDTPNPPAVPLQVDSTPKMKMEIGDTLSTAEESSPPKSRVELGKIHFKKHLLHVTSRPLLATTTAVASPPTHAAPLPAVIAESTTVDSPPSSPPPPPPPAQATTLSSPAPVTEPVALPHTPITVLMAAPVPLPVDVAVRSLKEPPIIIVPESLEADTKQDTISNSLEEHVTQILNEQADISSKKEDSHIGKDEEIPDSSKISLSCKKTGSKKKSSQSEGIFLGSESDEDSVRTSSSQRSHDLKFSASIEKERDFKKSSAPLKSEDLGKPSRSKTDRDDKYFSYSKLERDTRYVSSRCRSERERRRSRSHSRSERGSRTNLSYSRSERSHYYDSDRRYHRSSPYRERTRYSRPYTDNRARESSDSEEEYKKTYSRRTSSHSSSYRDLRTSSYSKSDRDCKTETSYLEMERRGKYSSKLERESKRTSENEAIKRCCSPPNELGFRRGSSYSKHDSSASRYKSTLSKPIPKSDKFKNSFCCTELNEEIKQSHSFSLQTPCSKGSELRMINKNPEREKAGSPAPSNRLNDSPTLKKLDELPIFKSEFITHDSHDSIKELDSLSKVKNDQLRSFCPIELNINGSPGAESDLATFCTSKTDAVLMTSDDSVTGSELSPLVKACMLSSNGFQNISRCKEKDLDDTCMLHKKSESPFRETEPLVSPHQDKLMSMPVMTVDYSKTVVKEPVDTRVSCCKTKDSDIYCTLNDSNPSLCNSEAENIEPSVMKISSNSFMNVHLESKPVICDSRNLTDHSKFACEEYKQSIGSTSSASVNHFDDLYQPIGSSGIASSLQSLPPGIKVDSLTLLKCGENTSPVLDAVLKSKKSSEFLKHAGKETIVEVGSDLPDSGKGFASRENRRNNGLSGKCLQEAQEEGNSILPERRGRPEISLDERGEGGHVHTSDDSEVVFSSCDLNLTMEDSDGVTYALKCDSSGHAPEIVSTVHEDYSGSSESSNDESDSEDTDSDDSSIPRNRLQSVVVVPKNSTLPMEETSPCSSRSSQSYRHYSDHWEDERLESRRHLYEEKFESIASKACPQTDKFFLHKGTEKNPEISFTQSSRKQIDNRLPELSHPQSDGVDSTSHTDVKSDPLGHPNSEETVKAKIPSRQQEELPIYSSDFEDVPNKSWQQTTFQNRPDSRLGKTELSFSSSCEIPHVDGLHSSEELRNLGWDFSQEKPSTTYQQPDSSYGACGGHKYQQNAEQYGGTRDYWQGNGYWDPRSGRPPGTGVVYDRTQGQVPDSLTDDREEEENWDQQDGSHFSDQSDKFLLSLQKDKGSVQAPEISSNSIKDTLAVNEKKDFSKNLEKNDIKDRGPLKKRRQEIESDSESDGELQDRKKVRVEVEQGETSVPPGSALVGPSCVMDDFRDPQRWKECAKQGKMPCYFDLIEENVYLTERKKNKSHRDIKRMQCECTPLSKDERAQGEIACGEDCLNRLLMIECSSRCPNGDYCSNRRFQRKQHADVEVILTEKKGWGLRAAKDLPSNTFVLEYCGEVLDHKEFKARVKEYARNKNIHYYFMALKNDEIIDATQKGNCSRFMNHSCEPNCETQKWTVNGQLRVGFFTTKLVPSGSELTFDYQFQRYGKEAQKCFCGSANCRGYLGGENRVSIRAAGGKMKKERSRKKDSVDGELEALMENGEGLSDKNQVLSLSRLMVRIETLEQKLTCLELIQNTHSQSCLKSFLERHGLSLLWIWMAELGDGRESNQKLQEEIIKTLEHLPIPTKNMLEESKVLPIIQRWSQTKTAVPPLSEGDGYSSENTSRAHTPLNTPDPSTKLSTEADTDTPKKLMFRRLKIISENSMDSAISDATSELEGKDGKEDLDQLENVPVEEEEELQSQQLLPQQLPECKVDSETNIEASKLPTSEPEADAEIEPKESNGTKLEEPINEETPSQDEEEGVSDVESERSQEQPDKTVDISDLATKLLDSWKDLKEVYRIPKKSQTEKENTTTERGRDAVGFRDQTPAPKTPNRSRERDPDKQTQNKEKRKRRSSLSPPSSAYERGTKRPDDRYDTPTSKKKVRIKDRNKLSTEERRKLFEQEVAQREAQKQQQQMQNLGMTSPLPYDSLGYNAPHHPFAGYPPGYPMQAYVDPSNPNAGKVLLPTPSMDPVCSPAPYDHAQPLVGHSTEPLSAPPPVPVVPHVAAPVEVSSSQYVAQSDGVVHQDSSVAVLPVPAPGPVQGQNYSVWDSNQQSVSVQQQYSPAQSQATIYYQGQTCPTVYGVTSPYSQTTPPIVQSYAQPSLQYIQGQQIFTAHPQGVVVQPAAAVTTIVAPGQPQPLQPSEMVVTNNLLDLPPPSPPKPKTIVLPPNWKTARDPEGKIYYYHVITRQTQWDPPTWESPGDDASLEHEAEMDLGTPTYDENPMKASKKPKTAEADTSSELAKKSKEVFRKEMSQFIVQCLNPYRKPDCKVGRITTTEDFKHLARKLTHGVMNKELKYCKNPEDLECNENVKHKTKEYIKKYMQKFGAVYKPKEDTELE", "assay": "Methyltransferase panel, 10-dose IC50 mode", "type": "biochemical", "settings": "Substrate: Nucleosomes; 1 μM SAM; read-out: Control IC50*", "protocol": "as §1"}, "NSD1": {"target": "NSD1 (Homo sapiens (Human), UniProt Q96L73)", "assay": "Methyltransferase panel, 10-dose IC50 mode", "type": "biochemical", "settings": "Substrate: Nucleosomes; 1 μM SAM; read-out: Control IC50*", "protocol": "as §1"}, "DNMT3a": {"target": "DNMT3a (Homo sapiens (Human), UniProt Q9Y6K1)", "sequence (Q9Y6K1 whole entry, looked up, species assumed)": "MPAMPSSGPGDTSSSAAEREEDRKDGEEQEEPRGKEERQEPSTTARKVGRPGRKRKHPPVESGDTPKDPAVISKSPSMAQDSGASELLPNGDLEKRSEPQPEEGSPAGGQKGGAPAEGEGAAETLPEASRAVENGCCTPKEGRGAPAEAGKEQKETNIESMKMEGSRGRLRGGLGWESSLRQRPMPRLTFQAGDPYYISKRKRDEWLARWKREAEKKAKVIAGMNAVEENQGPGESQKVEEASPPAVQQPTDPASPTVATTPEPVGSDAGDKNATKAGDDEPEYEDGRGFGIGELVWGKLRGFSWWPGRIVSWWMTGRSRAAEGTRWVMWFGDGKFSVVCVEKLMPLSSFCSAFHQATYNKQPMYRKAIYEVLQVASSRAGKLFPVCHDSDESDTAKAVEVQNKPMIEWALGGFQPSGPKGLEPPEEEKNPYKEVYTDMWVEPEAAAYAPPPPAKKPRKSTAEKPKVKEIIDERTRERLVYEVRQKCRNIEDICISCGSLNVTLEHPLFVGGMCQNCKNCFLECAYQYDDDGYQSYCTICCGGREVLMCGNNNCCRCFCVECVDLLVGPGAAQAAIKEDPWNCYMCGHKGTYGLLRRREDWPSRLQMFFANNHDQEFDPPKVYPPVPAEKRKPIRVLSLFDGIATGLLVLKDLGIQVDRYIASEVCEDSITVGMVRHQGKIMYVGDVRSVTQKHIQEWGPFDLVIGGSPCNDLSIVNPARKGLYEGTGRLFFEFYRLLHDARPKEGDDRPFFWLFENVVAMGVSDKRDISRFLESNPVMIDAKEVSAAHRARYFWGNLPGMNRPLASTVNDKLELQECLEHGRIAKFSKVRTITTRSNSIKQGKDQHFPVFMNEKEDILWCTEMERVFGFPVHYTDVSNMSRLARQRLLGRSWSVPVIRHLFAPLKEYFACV", "assay": "Methyltransferase panel, 10-dose IC50 mode", "type": "biochemical", "settings": "Substrate: Lambda DNA; 1 μM SAM; read-out: Control IC50*", "protocol": "as §1"}, "SUV420H1TV2": {"target": "SUV420H1TV2 (Homo sapiens (Human), UniProt Q4FZB7)", "assay": "Methyltransferase panel, 10-dose IC50 mode", "type": "biochemical", "settings": "Substrate: Nucleosomes; 1 μM SAM; read-out: Control IC50*", "protocol": "as §1"}, "SUV39H2": {"target": "SUV39H2 (Homo sapiens (Human), UniProt Q9H5I1)", "sequence (Q9H5I1 whole entry)": "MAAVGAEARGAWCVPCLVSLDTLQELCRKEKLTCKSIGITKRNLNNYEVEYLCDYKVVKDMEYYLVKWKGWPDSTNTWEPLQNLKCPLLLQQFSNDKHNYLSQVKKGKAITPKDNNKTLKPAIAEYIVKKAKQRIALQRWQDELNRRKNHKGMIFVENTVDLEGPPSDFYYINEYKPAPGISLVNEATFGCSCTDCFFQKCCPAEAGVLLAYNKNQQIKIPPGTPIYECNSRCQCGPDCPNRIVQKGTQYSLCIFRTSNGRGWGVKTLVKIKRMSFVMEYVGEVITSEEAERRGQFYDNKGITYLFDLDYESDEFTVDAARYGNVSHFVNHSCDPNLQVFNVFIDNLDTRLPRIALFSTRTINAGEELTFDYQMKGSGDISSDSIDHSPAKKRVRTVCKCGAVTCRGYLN", "assay": "Methyltransferase panel, 10-dose IC50 mode", "type": "biochemical", "settings": "Substrate: Histone H3; 1 μM SAM; read-out: Control IC50*", "protocol": "as §1"}, "NRMT2": {"target": "NRMT2 (Homo sapiens (Human), UniProt Q5VVY1)", "assay": "Methyltransferase panel, 10-dose IC50 mode", "type": "biochemical", "settings": "Substrate: RCC1; 1 μM SAM; read-out: Control IC50*", "protocol": "as §1"}, "MLL3 Complex": {"target": "MLL3 Complex (Homo sapiens (Human), UniProt Q8NEZ4)", "assay": "Methyltransferase panel, 10-dose IC50 mode", "type": "biochemical", "settings": "Substrate: Core Histone; 1 μM SAM; read-out: Control IC50*", "protocol": "as §1"}},
  "data": [
    {"smiles": "CNc1ncnc2c1ccn2[C@@H]1C[C@H](CN(CCCNCCc2ccccc2)CC[C@H](N)C(=O)O)[C@@H](O)[C@H]1O", "note": "[Compound 72b, (S)-2-amino-4-((((1R,2R,3S,4R)-2,3-dihydroxy-4-(4-(methylamino)-7H-pyrrolo[2,3-d]pyrimidin-7-yl)cyclopentyl)methyl)(3-(phenethylamino)propyl)amino)butanoic acid]", "values": [
      {"measurement": "Kd", "setting": "KMT9 [1]", "value": "< 100", "unit": "nM"},
      {"measurement": "IC50", "setting": "KMT9 [2]", "value": "< 100", "unit": "nM"},
      {"measurement": "ΔTm at 500 µM", "setting": "KMT9 [3]", "value": "5 to 15", "unit": "°C"},
      {"measurement": "specificity for KMT9-inhibition versus other methyltransferases", "setting": "[4]", "value": "specific for KMT9-inhibition"},
      {"measurement": "IC50", "setting": "KMT9 [5]", "value": "2e-07", "unit": "M"}
    ]},
    {"smiles": "Nc1ncnc2c1ncn2[C@@H]1O[C@H](CSCC[C@H](N)C(=O)O)[C@@H](O)[C@H]1O", "note": "[SAH, S-(5′-Adenosyl)-L-homocysteine]", "values": [
      {"measurement": "IC50", "setting": "GLP", "value": 1210, "unit": "nM"},
      {"measurement": "IC50", "setting": "DNMT3b", "value": 35.2, "unit": "nM"},
      {"measurement": "IC50", "setting": "MLL1 Complex", "value": 1170, "unit": "nM"},
      {"measurement": "IC50", "setting": "DNMT3b/3L", "value": 32.1, "unit": "nM"},
      {"measurement": "IC50", "setting": "SMYD3", "value": 12.9, "unit": "µM"},
      {"measurement": "IC50", "setting": "[6]", "value": 26.4, "unit": "µM"},
      {"measurement": "IC50", "setting": "NRMT1", "value": 1070, "unit": "nM"},
      {"measurement": "IC50", "setting": "SET7/9", "value": 281, "unit": "µM"},
      {"measurement": "IC50", "setting": "SET1b Complex", "value": 5.27, "unit": "µM"},
      {"measurement": "IC50", "setting": "PRMT3", "value": 1880, "unit": "nM"},
      {"measurement": "IC50", "setting": "PRMT6", "value": 199, "unit": "nM"},
      {"measurement": "IC50", "setting": "SETD2", "value": 4.08, "unit": "µM"},
      {"measurement": "IC50", "setting": "NSD1", "value": 4.33, "unit": "µM"},
      {"measurement": "IC50", "setting": "DNMT3a", "value": 329, "unit": "nM"},
      {"measurement": "IC50", "setting": "SUV420H1TV2", "value": 139, "unit": "µM"},
      {"measurement": "IC50", "setting": "SUV39H2", "value": 102, "unit": "µM"},
      {"measurement": "IC50", "setting": "NRMT2", "value": 643, "unit": "nM"},
      {"measurement": "IC50", "setting": "MLL3 Complex", "value": 25.4, "unit": "µM"}
    ]}
  ]
}
